Assay results from US20230183753A1, “Methods of in Vitro Cell Delivery” (Intellia Therapeutics, Inc., priority 2020, published 2023).

Columns and labels:
Format in all cases: cell-based, human
AAVS1 [1] = assay: Percent editing at AAVS1 by NGS in NK cells with DNAPK inhibitors, Example 29; details: LNP 10 ug/ml total RNA cargo, seven days post LNP treatment
Experimental: (§1) Human primary NK cells were activated and expanded using K562-41BBL cells as feeder cells in OpTmizer media with 5% human AB serum, 500 U/mL IL-2, and 5 ng/ml IL-15 for 3 days. NK cells were plated at 50,000 cells per well in triplicate in OpTmizer media supplemented as described above with DNAPKi at concentrations indicated in Tables 78 and 79. […] The pre-incubated LNPs were added to NK cells suspended in the same media at a final concentration of 10 ug/ml of total RNA cargo in triplicate. For a subset of samples, AAV encoding GFP flanked by regions homologous to the AAVS1 edit site were added at a multiplicity of infection (MOI) of 600,000 genome copies following editing.

AAVS1 [2] = assay: GFP insertion (GFP++) in NK cells with LNP, AAV and DNAPK inhibitors, Example 29; details: LNP 10 ug/ml, seven days following editing
Experimental: as §1

B2M [3] = assay: B2M editing by NGS in T cells with different ionizable lipid formulations (Lipid A, Lipid B), Example 7; details: LNPs formulated with the named ionizable lipid
Experimental: LNPs formulated with different ionizable lipids were tested for T cell delivery efficacy. T cells were prepared, thawed and activated as in Example 5. Forty-eight hours post activation, T cells were treated with LNPs delivering Cas9 mRNA and gRNA G000529 (SEQ ID NO: 701) targeting B2M. LNPs were generally prepared as Example 1. Lipid A formulations were prepared at a ratio of 50/9/38/3 ionizable Lipid A, cholesterol, DSPC, and PEG2k-DMG. Lipid B compositions were formulated at a ratio of 50/10/38.5/1.5 ionizable lipid nonyl 8-((8,8-bis(octyloxy)octyl)(2-hydroxyethyl)amino)octanoate, cholesterol, DSPC, and PEG2k-DMG.

TRAC = assay: Lipid screen in activated B cells: percent editing by NGS, Example 23.3; details: LNPs formulated with the named ionizable lipid, 5 μg/ml
Experimental: A leukopak from a healthy human donor was obtained commercially (Hemacare) and B cells were isolated by CD19 positive selection using the StraightFrom Leukopak CD19 MicroBead kit (Miltenyi, 130-117-021) on a MultiMACS Cell24 Separator Plus instrument. Following MACS isolation, CD19+ B cells were activated in B Cell Media 3 or B Cell Media 7, each supplemented with 100 ng/ml MEGACD40L. […] LNPs were generally prepared as Example 1 using the ionizable and PEG lipids described in Table 68 with the lipid composition expressed as the molar ratio of ionizable lipid/cholesterol/DSPC/PEG, respectively.
Editing was more efficient in B cells cultured in StemSpan compared to IMDM.

B2M [4] = assay: B2M negative B cells after LNPs preincubated with ApoE3 or ApoE4, Example 23.4; details: LNPs formulated with the named ionizable lipid
Experimental: B cells (Hemacare) were thawed and activated in Stemspan SFEM media with 1 ug/ml CpG ODN 2006 (Invivogen, cat. tlrl-2006-1), 50 ng/ml IL-2 (Peprotech, cat. 200-02), 50 ng/ml IL-10 (Peprotech, cat. 200-10), 10 ng/ml IL-15 (Peprotech, cat. 200-15), 1 ng/ml MegaCD40L (Enzo Life Sciences, cat. ALX-522-110-0000), 1% penicillin-streptomycin and 5% human AB serum. B cells were considered activated in the presence of 1 ng/mL MegaCD40L (Enzo Life Sciences, cat. ALX-522-110-0000) and 1 ug/mL CpG ODN 2006 (Invivogen, cat. tlrl-2006-1). Two days following activation, B cells were treated with LNPs delivering Cas9 mRNA and gRNA G000529 (SEQ ID NO: 701) targeting B2M. LNPs were generally prepared as Example 1 using the ionizable lipids described in Table 69 with the lipid composition of 50/10/38.5/1.5, expressed as the molar ratio of ionizable lipid/cholesterol/DSPC/PEG, respectively. […] Five days post LNP treatment, cells were phenotyped by flow cytometry. Briefly, B cells were incubated with antibodies targeting B2M (Biolegend, cat. 395806), CD19 (Biolegend, cat. 302205), CD20 (Biolegend, cat. 302322), CD86 (Biolegend cat. 305420). Cells were subsequently washed in DAPI (Thermo Fisher, cat. D1306) diluted 1:3703 in PBS, processed on a Cytoflex instrument (Beckman Coulter) and analyzed using the FlowJo software package. B cells were gated on size, singlets, and live cells.

B2M locus = assay: Insertion into B cells with LNP and AAV6: GFP positive and B2M negative cells, Example 26; details: Day 7 post-treatment; LNP with the named ionizable lipid 5 μg/ml plus AAV6
Experimental: B cells were isolated as Example 23.3. and were activated in B cell media 9 as described in Table 64, supplemented with 1 ng/ml MEGACD40L. Two days following activation, B cells were treated with LNPs delivering mRNA encoding Cas9 (SEQ ID NO. 6) and gRNA G000529 (SEQ ID NO: 701) targeting the B2M locus as well as with AAV6 for GFP template insertion into the B2M locus (SEQ ID NO. 722) driven by the EF1α promoter. LNPs were generally prepared as described in Example 1 using Lipid A and Lipid D as the ionizable lipids with the lipid composition of 50/10/38.5/1.5, expressed as the molar ratio of ionizable lipid/cholesterol/DSPC/PEG, respectively.
B cells were phenotyped for GFP expression on Day 7. For B cell phenotyping by flow cytometry, B cells were stained with antibodies targeting CD19 (Biolegend, 302218), CD20 (Biolegend, 302322), CD86 (Biolegend, 374216) and B2M (Biolegend, 316312). Cells were subsequently stained with a viability dye (Biolegend, 422801), washed, and processed on a Cytoflex instrument (Beckman Coulter). Results were analyzed using the FlowJo software package. B cells were gated based on size and viability, followed by GFP expression on the total live population.

B2M [5] = assay: Percent editing by NGS in monocytes and macrophages with Lipid A or Lipid D LNPs, Example 34; details: LNP formulations with the named lipid; Day 0 and Day 5 post thaw
Experimental: CD14+ cells were isolated as in Example 31 and frozen for future use. CD14+ cells were thawed and cultured in triplicate at 100,000 cells/well in OpTmizer base media as described in Table 2 with 10 ng/mL GM-CSF (Stemcell, 78140.1) on non-tissue culture plates (Falcon, 351172) for ease of detachment. Cells were treated with LNPs delivering mRNA encoding Cas9 (SEQ ID NO. 6) and gRNA G000529 (SEQ ID NO. 701) targeting B2M. For monocytes, LNP addition occurred on the same day as plating on tissue culture plates. […] LNPs were generally prepared as Example 1 using the ionizable lipids indicated in Tables 84 and 85 with the lipid composition of 50/10/38.5/1.5, expressed as the molar ratio of ionizable lipid/cholesterol/DSPC/PEG, respectively. […] The pre-incubated LNPs were added to cells in 1:1 v/v ratio, yielding a final total RNA cargo dose of 2.5 ug/mL or 5 ug/mL.
Briefly, cells were incubated with antibodies targeting CD68, CD11b and HLA-ABC (Biolegend, 311432) as generally as described in Example 31. HLA-ABC targeting antibody was used in place of B2M. Cells were subsequently washed, processed on a Cytoflex instrument (Beckman Coulter) and analyzed using the FlowJo software package. Cells were gated on size, CD68+, CD11b+ followed by HLA-ABC− population. NGS editing data is shown is Table 85. […] Editing was also observed when cells were cultured in RPMI or XVIVO-15 media.

TRBC [6] = assay: CD3 negative cells after treating activated T cells with LNPs preincubated with ApoE3, ApoE4 or ApoA1, Example 19
Experimental: All cells were cultured at 37 C for 48 hours. 100,000 T cells were resuspended in complete T cell media without human serum for 15-30 min prior to LNP transfection.
Cells were washed 48 hr post LNP treatment with T cell media to wash and replaced with fresh complete T cell media.
Five days post LNP treatment, T cells were phenotyped by flow cytometry to determine CD3 protein surface expression. […] Cells were subsequently washed, analyzed on a CytoFLEX S instrument (Beckman Coulter) using the FlowJo software package. T cells were gated on size and CD3 expression.

TRBC [7] = assay: CD3 negative cells after treating non-activated T cells with LNPs preincubated with ApoE3, ApoE4 or ApoA1, Example 19
Experimental: Healthy human donor leukopak was obtained commercially (Hemacare) and T cells were isolated by CD4/CD8 positive selection using the StraightFrom® Leukopak® CD4/CD8 MicroBeads (Miltenyi, Catalog, 130-122-352) following the manufacturer's protocol on MultiMACS Cell24 Separator Plus instrument.
Upon thaw, T cells were cultured in complete T cell media: T cell base media composed of XVIVO-15 media (Fisher, BE02-060Q), 1% Pen-Strep (Corning, 30-002-CI), 50 uM beta-mercaptoethanol, and N-Acetyl L-Cysteine (Fisher, ICN19460325), which was further supplemented with 5% human AB serum (Gemini Bio Products, 100-512), 200 U/mL IL-2 (Peprotech, 200-02), 5 ng/mL IL7 (Peprotech, 200-07), 5 ng/mL IL-15 (Peprotech, 200-15)). At this stage, a portion of cells were activated by addition of 1:100 dilution of TransAct (Miltenyi Biotech, Catalog #130-111-160). All cells were cultured at 37 C for 48 hours.
LNPs were generally prepared as Example 1 with the lipid composition of 50/9/39.5/1.5, expressed as the molar ratio of ionizable lipid A/cholesterol/DSPC/PEG, respectively.
Briefly, T cells were incubated in antibody targeting CD3 (Biolegend, 300441). Cells were subsequently washed, analyzed on a CytoFLEX S instrument (Beckman Coulter) using the FlowJo software package. T cells were gated on size and CD3 expression.

[8] = Apo protein 0.08 ug/mL, Biological Replicate1, LNP 4 ug/mL
[9] = Apo protein 0.08 ug/mL, Biological Replicate2, LNP 4 ug/mL
[10] = Apo protein 1.25 ug/mL, Biological Replicate1, LNP 4 ug/mL
[11] = Apo protein 1.25 ug/mL, Biological Replicate2, LNP 4 ug/mL
[12] = Apo protein 5.00 ug/mL, Biological Replicate1, LNP 4 ug/mL
[13] = Apo protein 5.00 ug/mL, Biological Replicate2, LNP 4 ug/mL
[14] = Apo protein 10.00 ug/mL, Biological Replicate1, LNP 4 ug/mL
[15] = Apo protein 10.00 ug/mL, Biological Replicate2, LNP 4 ug/mL

How did the “Mean percent editing at AAVS1” value (AAVS1 [1]; DNAPKi 0.125 uM) turn out when `Cc1cc2ncnn2cc1Nc1ncc2c(n1)n(C1CCC3(CC1)CC3)c(=O)n2C` [Compound 4, 7-methyl-2-((7-methyl-[1,2,4]triazolo[1,5-a]pyridin-6-yl)amino)-9-(spiro[2.5]octan-6-yl)-7,9-dihydro-8H-purin-8-one] was run?
Its value is 96.77%.

And the “Mean percent editing at AAVS1” value (AAVS1 [1]; DNAPKi 0.5 uM)?
Its value is 97.67%.

What about the “Mean percent editing at AAVS1” value (AAVS1 [1]; DNAPKi […]) of the same compound?
The value was 97.37%.

And the “Percent of NK cells with high GFP expression, Mean” value (from here on “Percent of NK cells”) (AAVS1 [2]; AAV MOI 600,000, DNAPKi 0.125 uM)?
Its value is 88.10%.

What about the “Percent of NK cells” value (AAVS1 [2]; AAV MOI 600,000, DNAPKi 0.5 uM) of the same compound?
Its value is 90.27%.

What about the “Percent of NK cells” value (AAVS1 [2]; AAV MOI 600,000, DNAPKi […]) of the same compound?
The value was 90.63%.

What does the source list for `CCCCC/C=C\C/C=C\CCCCCCCC(=O)OCC(COC(=O)CCC(OCCCCCCCC)OCCCCCCCC)COC(=O)OCCCN(CC)CC` (stereo not shown) [Lipid A, (9Z,12Z)-3-((4,4-bis(octyloxy)butanoyl)oxy)-2-((((3-(diethylamino)propoxy)carbonyl)oxy)methyl)propyl octadeca-9,12-dienoate]?
B2M editing in T cells by NGS, in words (B2M [3]): Efficient editing was evident; editing in activated B cells by NGS, in words (TRAC): Efficient editing was evident; B2M negative B cells, in words (B2M [4]): increased percentage of B2M negative cells; percentage of B cells expressing GFP (B2M locus): 29.5%; editing in monocytes and macrophages, in words (B2M [5]): showed effective editing

`CCCCCCCCCOC(=O)CCCCCCCN(CCO)CCCCCCCC(OCCCCCCCC)OCCCCCCCC` [Lipid B, nonyl 8-((8,8-bis(octyloxy)octyl)(2-hydroxyethyl)amino)octanoate] was tested. Which “B2M editing in T cells by NGS, in words” value (B2M [3]) did it give?
The value was “Efficient editing was evident”.

Which “editing in activated B cells by NGS, in words” value (TRAC) does the source give for `CCCCCCCCCOC(=O)CCCCCCCN(CCO)CCCCCCC(OCCCCCCCC)OCCCCCCCC` [Lipid C] here?
The value was “Efficient editing was evident”.

What does the source list for `CCCCCCCCCOC(=O)CCCCCCCN(CCO)CCCCCCC(OCCCCCCCC)OCCCCCCCC` [Lipid D]?
B2M negative B cells, in words (B2M [4]): increased percentage of B2M negative cells; percentage of B cells expressing GFP (B2M locus): 14.5%; editing in monocytes and macrophages, in words (B2M [5]): showed effective editing

Which results are given for “ApoA1: Recombinant Human ApoA1 used to preincubate LNPs”?
Percent CD3 negative cells (TRBC [6]; [8]): 2.9%; Percent CD3 negative cells (TRBC [6]; [9]): 2.5%; Percent CD3 negative cells (TRBC [6]; [10]): 2.8%; Percent CD3 negative cells (TRBC [6]; [11]): 3.0%; Percent CD3 negative cells (TRBC [6]; [12]): 2.5%; Percent CD3 negative cells (TRBC [6]; [13]): 3.2%; Percent CD3 negative cells (TRBC [6]; [14]): 3.6%; Percent CD3 negative cells (TRBC [6]; [15]): 3.6%; editing (CD3 negative cells) with LNPs preincubated with Apo protein, in words (TRBC [6]; Apo protein 0.08-10 ug/mL): none of the tested concentrations of ApoA1 protein led to efficient editing; Percent CD3 negative cells (TRBC [7]; [8]): 4.2%; Percent CD3 negative cells (TRBC [7]; [9]): 6.2%; Percent CD3 negative cells (TRBC [7]; [10]): 4.7%; Percent CD3 negative cells (TRBC [7]; [11]): 4.2%; Percent CD3 negative cells (TRBC [7]; [12]): 6.1%; Percent CD3 negative cells (TRBC [7]; [13]): 4.8%; Percent CD3 negative cells (TRBC [7]; [14]): 5.4%; Percent CD3 negative cells (TRBC [7]; [15]): 3.8%; editing (CD3 negative cells) with LNPs preincubated with Apo protein, in words (TRBC [7]; Apo protein 0.08-10 ug/mL): none of the tested concentrations of ApoA1 protein led to efficient editing
